These results are taken from patent publication US20190064129A1, “Systems And Methods To Determine Body Drug Concentration From An Oral Fluid” (Sterling Healthcare Opco, LLC, priority 2013, published 2019).

The conditions of series [1]: referenced in literature, cited from earlier work; for Kel: elimination constant.
The nature of series [2]: Oral fluid plasma equivalent calculation. The class given is in vivo, human. From the text:
(§1) Each donor provides simultaneous serum and oral fluid samples. The measured serum drug concentration is the LC-MS/MS response ratio of drug to internal standard determined from the individual's provided serum sample. The measured oral fluid drug concentration ratio is the LC-MS/MS response ratio of drug to internal standard determined from the individual's provided oral fluid sample. The oral fluid plasma equivalent is derived from the individual's measured oral fluid drug concentration, salivary pH, as well as various drug parameters referenced in literature.
[formula] • S=Saliva drug concentration (ng/mL) • P=Plasma drug concentration (ng/mL) • pHs=pH of saliva (to be determined at the time of collection) • pHp=pH of plasma (assumed to be 7.4) • pKa=Dissociation constant of a drug (referenced in literature) • fp=Free fraction of drug in plasma (referenced in literature) • fs=Free fraction of drug in saliva (negligible; assumed to be 1)
Once the S/P ratio for a drug is calculated using Eq. 5 or Eq. 6, oral fluid plasma equivalent is determined by […] the calculated S/P by the measured oral fluid drug concentration determined by LC/MS-MS quantitation, ultimately eliminating the necessity of directly analyzing blood samples to determine donor compliance.

The nature of series [3]: Drug pharmacokinetic parameters referenced in literature. The class given is in vivo. The note with it: drug clearance/Vd. As for the experimental part: Do=Original dosage taken Vd=Volume of distribution of drug (referenced in literature) times the kg body weight of donor C=Plasma drug concentration Ka=Absorption constant of drug (referenced in literature) Kel=Elimination constant of drug (referenced in literature) F=Bioavailability of drug (referenced in literature) t=Elapsed time between dosage and specimen collection
Each donor's drug clearance rate is determined by multiplying the drugs clearance rate (referenced in literature) by the donor's weight (provided).
Likewise, each donor's volume of distribution (DVd) is calculated by multiplying the drug volume of distribution (Vd) (referenced in literature) by the donor's weight (provided).
[formula] • Css max=Steady state maximum concentration (ng/mL) • F=Fractional bioavailability • k=Fractional rate constant (drug clearance/Vd) • t=Dose frequency (hr) • DVd=Donor volume of distribution (reference Eq. 2)
[formula] • Do=Original dose taken (mg) • DVd=Volume of distribution of donor (mL) (reference Eq. 2) • C=Plasma drug concentration (mg/mL) • Ka=Absorption constant of drug (referenced in literature) • Kel=Elimination constant of drug (referenced in literature) • F=Fractional bioavailability of drug (referenced in literature) • t=Elapsed time between dosage and specimen collection (fir)

The next series concerns plasma proteins. As to conditions: free fraction in plasma, referenced in literature; cited from earlier work.
Series [4] in a line: LC-MS/MS quantitation of drug in donor oral fluid (saliva). The class given is in vivo, human. An excerpt: With reference now to FIG. 1, an exemplary methodology 100 for collecting oral fluid will be described. First, the donor (sometimes referred to as subject, patient, person, or the like) is positioned to allow retrieval of the oral fluid sample, step 102. Next, an oral fluid collection device is placed in the donor's mouth, step 104. The collection device in one exemplary embodiment may be an absorbent swab placed under the tongue. One particularly useful collection device that has been developed is shown and described in FIG. 6. In this exemplary embodiment, the oral fluid collection device collects about 1 mL of neat oral fluid from the donor. Generally, the term about or approximately in the present application means within an acceptable tolerance, such as, for example, ±10% or the like. Volumetric collection is required for quantitative analysis when analyzed from a buffer solution. Oral fluid may be absorbed by the collection device by allowing saliva to move up the stem of a collection device via capillary action, step 106. When a sufficient amount of oral fluid is collected, the collection device provides indicia that the required collection amount has been collected, step 108. The indicia indicating the required volume is collected may be by a color change on a collection adequacy indicator or the like. Alternatively, an alpha/numeric display may be provided or an audio alert, such as a beep. Determining salivary pH is completed next or substantially at the same time as the required volume is collected, step 110. The pH of the oral fluid may be determined by a pH sensitive pigment or by other means including, for example, a sensor or the like. The pH indicia may be combined or separate from the indicia for volume and may include the same or different indicators. For example, the volume of the sample may be provided by a color strip whereas the pH may be provided by an audio. […] The pH will then be recorded or otherwise maintained for later use, step 112. In this exemplary embodiment, the donor will provide a sample by placing the collector swab under his or her tongue until the indicator changes color. The swab is then placed in 3 mL of oral fluid extraction buffer that promotes stabilization of the drug, preventing bacterial growth, and facilitates efficient extraction of the drugs and/or metabolites from the adsorbent swab, as is further explained below, step 114. Specimens may be aliquoted for analysis, and any remaining sample may be transferred to long-term storage at, for example, a storage temperature of between about −20 to about 0° C. The collected oral fluid may be referred to as a sample or a specimen interchangeably herein.
Specimens may undergo a sample preparation step in advance of providing the sample to the drug concentration analysis engine, which involves extracting the analyte(s) of interest from biological matrices. This process serves to eliminate any biological material that could potentially affect analytical results. Samples are first treated to disrupt any drug matrix interactions (protein binding, conjugation) and then adjusted to a specific pH with a buffer. Analytes are then extracted from the remaining matrix using solid phase extraction module 206, which may be comprised of cartridges that are mixed-mode cationic exchange columns. This technique uses the specific binding of ionized drug molecules to the extraction cartridge packing material resulting in strong analyte retention within the column. A series of aqueous and organic wash steps may be used to assist in removing unwanted compounds and matrix components from the sample. Target analytes are then eluted from the solid phase extraction module 206, collected, and analyzed by identification module 208 that may be, for example, a liquid chromatography tandem mass spectrometry (LC/MS-MS) device, although other analysis devices are possible. […]

Series [5] can be described thus: LC-MS/MS quantitation of drug in donor serum/plasma. The class given is in vivo, human.
Text: Specimens may undergo a sample preparation step in advance of providing the sample to the drug concentration analysis engine, which involves extracting the analyte(s) of interest from biological matrices. This process serves to eliminate any biological material that could potentially affect analytical results. Samples are first treated to disrupt any drug matrix interactions (protein binding, conjugation) and then adjusted to a specific pH with a buffer. Analytes are then extracted from the remaining matrix using solid phase extraction module 206, which may be comprised of cartridges that are mixed-mode cationic exchange columns. This technique uses the specific binding of ionized drug molecules to the extraction cartridge packing material resulting in strong analyte retention within the column. A series of aqueous and organic wash steps may be used to assist in removing unwanted compounds and matrix components from the sample. Target analytes are then eluted from the solid phase extraction module 206, collected, and analyzed by identification module 208 that may be, for example, a liquid chromatography tandem mass spectrometry (LC/MS-MS) device, although other analysis devices are possible.
In this exemplary embodiment, the specimens are analyzed by the identification module 208 that is a LC/MS-MS device, which allows for accurate and precise analyte identification and quantitation. This analytical technique uses a chromatographic system to separate all of the sample components into discrete peaks and sequentially identifies each compound through mass spectral identification. The chromatographic system is composed of a stationary phase of hydrophobic character (for example, octadecylsilane) and a mobile phase of varying polarity (for example, methanol, water). Specimens are injected into the chromatograph and pumped through the system by flow of the mobile phase. Separation is brought about by differential interactions with the stationary phase based on physical and chemical properties of the individual analytes. The end result is a separation of all of the sample components into discrete bands. As each component elutes from the liquid chromatograph it enters the mass spectrometer. The mass spectrometer is able to first determine an analytes specific molecular weight, called a precursor ion, and subsequently fragment the precursor ion into smaller fragments called product ions. The precursor ion and generated product ions are a specific marker of every analyte of interest. No two compounds will generate completely identical mass spectra. This allows for the identification module 208 to conclusively identify specimen components. Additionally, when specimens are analyzed alongside a series of standards of known concentration, a calibration curve can be generated and quantitative values of identified drugs can be determined.
as §1

[6] abbreviates: Donor 0182, salivary pH 5.5, dose 5 mg every 6 hr, weight 68.554 kg.
The mark [7] stands for this setting: Donor 0383, salivary pH 5.8, dose 10 mg every 4 hr, weight 68.10 kg.
[8] abbreviates: Donor 0602, salivary pH 5.5, dose 5 mg every 12 hr, weight 163.44 kg.
[9] abbreviates: Donor 0442, salivary pH 5.8, dose 100 mg every 8 hr, weight 89.890 kg.
Where [10] appears, read: Donor 0604, salivary pH 5.5, dose 50 mg every 8 hr, weight 81.720 kg.
The mark [11] stands for this setting: Donor 0673, salivary pH 6.8, dose 50 mg every 6 hr, weight 105.782 kg.

For `COc1ccc2c3c1O[C@H]1C(=O)CC[C@H]4[C@@H](C2)N(C)CC[C@]314` [Hydrocodone], the Ka in series [1] (absorption constant) is 2.8 h⁻¹. In addition, the Kel in series [1] is 0.141 h⁻¹. The Clearance in series [1] is 8.82 mL/min/kg. Moreover, the “Fractional Bioavailability” value in series [1] is listed as 0.7. For the same compound, the “Hydrocodone Oral Fluid Plasma Equivalent” value in series [2] (Donor 0409, salivary pH 6, dose 5 mg every 6 hr, weight 67.646 kg) is 20.5 ng/mL; in series [2] (Donor 0704, salivary pH 6.6, dose 10 mg every 12 hr, weight 147.55 kg) it was 60.5 ng/mL; in series [2] (Donor 0897, salivary pH 7, dose 10 mg every 4 hr, weight 83.99 kg) it was 10.1 ng/mL. For the same compound, the “Oral Fluid Plasma Equivalent” value in series [2] (Donor 0476, salivary pH 7.2, 5.833 hr after last dose) was 4.5 ng/mL (reference Eq. 8). Moreover, in series [3], the “Fractional Rate Constant; “k”” value amounted to 0.132 h⁻¹.

For `COc1ccc2c3c1O[C@H]1C(=O)CC[C@@]4(O)[C@@H](C2)N(C)CC[C@]314` [Oxycodone], in series [1], the Kel is 0.174 h⁻¹. Also, the Clearance in series [1] is 12.4 mL/min/kg. The “Fractional Bioavailability” value in series [1] is reported as 0.735. The “Unbound Fraction (fp)” value in the series on plasma proteins is listed as 0.55. Also, the figures for the “Measured Saliva Oxycodone Concentration” value in series [4] (setting [6]), in series [4] (setting [7]) and in series [4] (setting [8]) were 306.4 ng/mL, 230.2 ng/mL and 978.2 ng/mL, respectively. In addition, the concentration at 1.333 hr is 217 ng/mL in series [4] (human, oral fluid (saliva), po, 1 mg, Donor 0565, salivary pH 6.4, weight 118.040 kg, 1.333 hr after last dose, read-out: Measured Oral Fluid Concentration) and 42 ng/mL in series [2] (human, plasma (equivalent calculated from oral fluid), po, 1 mg, Donor 0565, salivary pH 6.4, 1.333 hr after last dose). Besides, the “Oxycodone Oral Fluid Plasma Equivalent” value in series [2] (setting [6]) was 7.5 ng/mL; in series [2] (setting [7]), 11.3 ng/mL; in series [2] (setting [8]), 24.1 ng/mL. Moreover, the “Oral Fluid Plasma Equivalent (Calculated Plasma Concentration)” value in series [2] (Donor 0565, salivary pH 6.4, 1.333 hr after last dose) is on record as 42.0 ng/mL (reference Eq. 8). Besides, the entries for the “Measured Plasma Oxycodone Concentration” value in series [5] (setting [6]), in series [5] (setting [7]) and in series [5] (setting [8]) were 7.9 ng/mL, 8.4 ng/mL and 16.7 ng/mL, respectively. In series [5] (human, plasma, 1 mg, Donor 0565, weight 118.040 kg, 1.383 hr after last dose), this compound returned a concentration at 1.383 hr of 33.7 ng/mL. Moreover, in series [5] (human, plasma, 7.5 mg, Donor 0476, weight 84.898 kg, 6.050 hr after last dose, read-out: Measured Plasma Concentration), the concentration at 6.05 hr was found to be 3.2 ng/mL. In addition, the “Fractional Rate Constant; “k”” value in series [3] came to 0.372 h⁻¹.

As for `COc1cccc(C2(O)CCCCC2CN(C)C)c1` (stereo not drawn) [Tramadol], the Clearance in series [1] is 8 mL/min/kg. The “Fractional Bioavailability” value in series [1] is on record as 0.725. In series [1], the “Volume of Distribution” value is 2.7 L/kg. The “Unbound Fraction (fp)” value in the series with plasma proteins is 0.80. The “Measured Saliva Tramadol Concentration” value is 1302.5 ng/mL in series [4] (setting [9]), 29926.5 ng/mL in series [4] (setting [10]) and 375.6 ng/mL in series [4] (setting [11]). Moreover, the “Tramadol Oral Fluid Plasma Equivalent” value is recorded as 41.2 ng/mL in series [2] (setting [9]), 475.5 ng/mL in series [2] (setting [10]) and 118.7 ng/mL in series [2] (setting [11]). Further, the entries for the “Measured Plasma Tramadol Concentration” value in series [5] (setting [9]), in series [5] (setting [10]) and in series [5] (setting [11]) were 70.4 ng/mL, 376.6 ng/mL and 104.1 ng/mL, respectively. Further, in series [3], the “Fractional Rate Constant; “k”” value turned out to be 0.178 h⁻¹.
